Data reported in ChEMBL document CHEMBL1201862, “PubChem BioAssay data set” (2004).
Activity calls are given as the source filed them. Cut-off read from the data, not from the text of the source: actives have a measured IC50 and inactives only a lower limit.

Target: Envelope glycoprotein gp160 (Human immunodeficiency virus 1, UniProt Q6QLK5)
Assay: inhibitors of HIV fusion peptide binding, primary screen, biochemical, uHTS, fluorescence dequenching (AID 1986)

Envelope glycoprotein gp160, sequence (Q6QLK5 whole entry, the tested form may be a part): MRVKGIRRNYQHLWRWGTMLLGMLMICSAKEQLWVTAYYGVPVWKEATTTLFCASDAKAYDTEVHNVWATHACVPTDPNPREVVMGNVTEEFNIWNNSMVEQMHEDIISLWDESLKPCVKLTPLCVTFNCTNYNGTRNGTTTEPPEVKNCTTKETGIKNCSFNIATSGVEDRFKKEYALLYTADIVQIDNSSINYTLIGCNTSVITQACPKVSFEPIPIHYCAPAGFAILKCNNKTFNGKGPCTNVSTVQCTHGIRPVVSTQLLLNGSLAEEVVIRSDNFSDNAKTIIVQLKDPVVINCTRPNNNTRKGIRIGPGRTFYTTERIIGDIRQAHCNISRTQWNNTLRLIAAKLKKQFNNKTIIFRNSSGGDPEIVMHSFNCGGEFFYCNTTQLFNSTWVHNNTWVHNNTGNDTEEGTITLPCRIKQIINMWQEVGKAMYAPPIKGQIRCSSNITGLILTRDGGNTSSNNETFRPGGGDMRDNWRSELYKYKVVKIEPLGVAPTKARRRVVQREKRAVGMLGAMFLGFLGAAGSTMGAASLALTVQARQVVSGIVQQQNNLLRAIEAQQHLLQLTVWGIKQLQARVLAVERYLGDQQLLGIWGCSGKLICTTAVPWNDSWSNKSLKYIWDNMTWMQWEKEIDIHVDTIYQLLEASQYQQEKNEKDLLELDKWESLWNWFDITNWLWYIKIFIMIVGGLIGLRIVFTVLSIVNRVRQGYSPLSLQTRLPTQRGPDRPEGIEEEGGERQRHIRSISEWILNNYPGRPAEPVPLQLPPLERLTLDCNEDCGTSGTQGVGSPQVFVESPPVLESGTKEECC

Row | Structure (SMILES) | IC50
1 | CCOC(=O)C1=C(C)N=c2s/c(=C/c3ccc(OCC(=O)O)cc3)c(=O)n2C1c1ccc(SC)cc1 (configuration not stated) | 12.7 µM (active)
2 | C=CCOC(=O)C1=C(C)N=c2s/c(=C3\C(=O)N(CC(=O)O)c4ccccc43)c(=O)n2C1c1ccc(OC)cc1 (configuration not stated) | 18 µM (active)
